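How tested: cells in 96-well plates exposed to compound for 48 hours at five concentrations. Abbreviation: GI50, concentration required for 50% inhibition of growth.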 Calls of active or inactive are those of the source. No stated cut-off is given here; in the data, active = GI50 up to about 1.1 µM and inactive = higher.
Key:
Experiment in all cases: inhibition of tumour cell growth, NCI panel, 48 h
[1] = tested on: 786-0
[2] = tested on: A498
[3] = tested on: A549
[4] = tested on: BT-549
[5] = tested on: CAKI-1
[6] = tested on: CCRF-CEM
[7] = tested on: COLO 205
[8] = tested on: DU-145
[9] = tested on: EKVX
[10] = tested on: HCC 2998
[11] = tested on: HCT-116
[12] = tested on: HCT-15
[13] = tested on: HOP-62
[14] = tested on: HOP-92
[15] = tested on: HT-29
[16] = tested on: Hs-578T
[17] = tested on: IGROV-1
[18] = tested on: K562
[19] = tested on: KM12
[20] = tested on: M14
[21] = tested on: MCF7
[22] = tested on: MDA-MB-231
[23] = tested on: MDA-MB-435
[24] = tested on: MDA-N
[25] = tested on: MOLT-4
[26] = tested on: Malme-3M
[27] = tested on: NCI-H226
[28] = tested on: NCI-H23
[29] = tested on: NCI-H460
[30] = tested on: NCI-H522
[31] = tested on: NCI/ADR-RES
[32] = tested on: OVCAR-3
[33] = tested on: OVCAR-4
[34] = tested on: OVCAR-5
[35] = tested on: OVCAR-8
[36] = tested on: PC-3
[37] = tested on: SF-268
[38] = tested on: SF-295
[39] = tested on: SF-539
[40] = tested on: SK-MEL-28
[41] = tested on: SK-MEL-5
[42] = tested on: SK-OV-3
[43] = tested on: SN12C
[44] = tested on: SNB-19
[45] = tested on: SNB-75
[46] = tested on: SW-620
[47] = tested on: T47D
[48] = tested on: U-251
[49] = tested on: UACC-257
[50] = tested on: UACC-62
[51] = tested on: UO-31
[52] = tested on: ACHN
[53] = tested on: HL-60
[54] = tested on: RPMI-8226
[55] = tested on: RXF 393
[56] = tested on: SK-MEL-2
[57] = tested on: TK-10

For `CC(C)CCNC(=O)C(CC(C)C)NC(=O)[C@H]1O[C@@H]1C(=O)O` (stereo partly specified), the GI50 [1] was > 100 µM (inactive), the GI50 [2] was > 100 µM (inactive) and the GI50 [3] was > 100 µM (inactive). For the same molecule, the GI50 [4] was > 100 µM (inactive), the GI50 [5] was > 100 µM (inactive) and the GI50 [6] was > 100 µM (inactive). The GI50 [7] was > 100 µM (inactive), the GI50 [8] was > 100 µM (inactive) and the GI50 [9] was > 100 µM (inactive). For the same molecule, the GI50 [10] was > 100 µM (inactive), the GI50 [11] was > 100 µM (inactive) and the GI50 [12] was over 100 µM. For the same molecule, the GI50 [13] was > 100 µM (inactive), the GI50 [14] was > 100 µM (inactive) and the GI50 [15] was > 100 µM (inactive). For the same molecule, the GI50 [16] was > 100 µM (inactive), the GI50 [17] was > 100 µM (inactive) and the GI50 [18] was > 100 µM (inactive). For the same molecule, the GI50 [19] was > 100 µM (inactive), the GI50 [20] was > 100 µM (inactive) and the GI50 [21] was > 100 µM (inactive). The GI50 [22] was > 100 µM (inactive), the GI50 [23] was > 100 µM (inactive) and the GI50 [24] was > 100 µM (inactive). For the same molecule, the GI50 [25] was > 100 µM (inactive), the GI50 [26] was > 100 µM (inactive) and the GI50 [27] was > 100 µM (inactive). For the same molecule, the GI50 [28] was > 100 µM (inactive), the GI50 [29] was > 100 µM (inactive) and the GI50 [30] was > 100 µM (inactive). The GI50 [31] was > 100 µM (inactive), the GI50 [32] was > 100 µM (inactive) and the GI50 [33] was > 100 µM (inactive). The GI50 [34] was > 100 µM (inactive), the GI50 [35] was > 100 µM (inactive) and the GI50 [36] was > 100 µM (inactive). For the same molecule, the GI50 [37] was > 100 µM (inactive), the GI50 [38] was > 100 µM (inactive) and the GI50 [39] was > 100 µM (inactive). The GI50 [40] was > 100 µM (inactive), the GI50 [41] was > 100 µM (inactive) and the GI50 [42] was > 100 µM (inactive). The GI50 [43] was > 100 µM (inactive), the GI50 [44] was > 100 µM (inactive) and the GI50 [45] was > 100 µM (inactive). The GI50 [46] was > 100 µM (inactive), the GI50 [47] was > 100 µM (inactive) and the GI50 [48] was > 100 µM (inactive). The GI50 [49] was > 100 µM (inactive), the GI50 [50] was > 100 µM (inactive) and the GI50 [51] was > 100 µM (inactive).
With `c1ccc2c(CN3CCC(C4CCN(Cc5cccc6ccccc56)CC4)CC3)cccc2c1` the GI50 [1] was 16.3 µM (inactive), the GI50 [3] was 62.7 µM (inactive) and the GI50 [52] was 33.3 µM (inactive). For the same molecule, the GI50 [4] was > 56 µM (inactive), the GI50 [7] was 1.77 µM (inactive) and the GI50 [8] was 86.1 µM (inactive). The GI50 [10] was 1.77 µM (inactive), the GI50 [53] was 3.01 µM (inactive) and the GI50 [13] was 25.4 µM (inactive). The GI50 [15] was 3.28 µM (inactive), the GI50 [16] was 32.1 µM (inactive) and the GI50 [18] was 1.6 µM (inactive). The GI50 [20] was 1.98 µM (inactive), the GI50 [21] was 26.5 µM (inactive) and the GI50 [22] was 21.4 µM (inactive). For the same molecule, the GI50 [23] was 3.52 µM (inactive), the GI50 [24] was 8.13 µM (inactive) and the GI50 [25] was 5.27 µM (inactive). For the same molecule, the GI50 [26] was 3.47 µM (inactive), the GI50 [29] was 16.3 µM (inactive) and the GI50 [30] was 8.53 µM (inactive). For the same molecule, the GI50 [31] was 38.3 µM (inactive), the GI50 [32] was > 58.6 µM (inactive) and the GI50 [36] was 32.8 µM (inactive). The GI50 [54] was 2.57 µM (inactive), the GI50 [55] was 21.8 µM (inactive) and the GI50 [38] was 6.28 µM (inactive). For the same molecule, the GI50 [56] was 8.41 µM (inactive), the GI50 [41] was 4.89 µM (inactive) and the GI50 [42] was 28 µM (inactive). For the same molecule, the GI50 [47] was 23.1 µM (inactive), the GI50 [57] was 20.1 µM (inactive) and the GI50 [48] was 16.5 µM (inactive). The GI50 [49] was 3.48 µM (inactive) and the GI50 [50] was 7.43 µM (inactive).

From ChEMBL document CHEMBL1201862, “PubChem BioAssay data set” (2004)
